Laboratory results published in ChEMBL document CHEMBL1128273, “Quantitative structure-activity relationships of the inhibition of Pneumocystis carinii dihydrofolate reductase by 4,6-diamino-1,2-dihydro-2,2-dimethyl-1-(X-phenyl)-s-triazines” (J Med Chem, 1995).

System: not listed separately
Test: Partition coefficient (logP)
Format: physicochemical
Details: octanol/water

Row | SMILES | logP
1 | CN(C)C(=O)c1cccc(COc2ccc(N3C(N)=NC(N)=NC3(C)C)cc2Cl)c1 | -1.84
2 | CC1(C)N=C(N)N=C(N)N1c1ccc(CCCCc2ccc(S(=O)(=O)F)cc2Cl)c(Cl)c1 | 2.42

Target: T1, Dihydrofolate reductase (Homo sapiens, UniProt P00374)
T1 sequence (P00374 whole entry): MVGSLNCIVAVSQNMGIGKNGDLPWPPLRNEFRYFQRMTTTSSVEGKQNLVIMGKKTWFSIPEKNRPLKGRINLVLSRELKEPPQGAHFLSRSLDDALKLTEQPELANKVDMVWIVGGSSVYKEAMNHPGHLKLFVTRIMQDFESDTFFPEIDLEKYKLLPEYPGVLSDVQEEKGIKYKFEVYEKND
Test: Inhibition of human dihydrofolate reductase (DHFR)
Details: read-out: Log 1/Ki (converted)

Row | SMILES | Ki [nM]
3 | CC1(C)N=C(N)N=C(N)N1c1cccc(SCc2ccccc2)c1 | 42.7
4 | CC1(C)N=C(N)N=C(N)N1c1cccc(COc2cccc3ccccc23)c1 | 135

System: not listed separately
Test: Selectivity index as the ratio of Ki value towards Human DHFR to that of Pneumocystis carinii DHFR.
Details: not given

Row | SMILES | Selectivity index
5 | CC1(C)N=C(N)N=C(N)N1c1cccc(OCC23CC4CC(CC(C4)C2)C3)c1 | 1.66
6 | CC1(C)N=C(N)N=C(N)N1c1cccc(SCc2ccccc2)c1 | 1.18
7 | CCOc1cc(Cc2cnc(N)nc2N)cc(OCC)c1-n1cccc1 [EPIROPRIM] | 0.53
8 | CC1(C)N=C(N)N=C(N)N1c1cccc(COc2cccc3ccccc23)c1 | 1.38

Target: T2, Dihydrofolate reductase (Pneumocystis carinii, UniProt P16184)
T2 sequence (P16184 whole entry): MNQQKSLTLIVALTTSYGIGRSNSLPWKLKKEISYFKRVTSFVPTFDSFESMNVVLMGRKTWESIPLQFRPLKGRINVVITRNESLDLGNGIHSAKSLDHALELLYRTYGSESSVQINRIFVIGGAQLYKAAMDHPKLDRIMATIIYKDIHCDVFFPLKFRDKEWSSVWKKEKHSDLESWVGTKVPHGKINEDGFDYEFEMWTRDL
Details: not given

Row | SMILES | Ki [nM]
9 | CC1(C)N=C(N)N=C(N)N1c1cccc(C(O)c2ccccc2)c1 (stereo not drawn) | 1170
10 | CC1(C)N=C(N)N=C(N)N1c1cccc(OCC23CC4CC(CC(C4)C2)C3)c1 | 17
11 | Cc1cccc(OCc2cccc(N3C(N)=NC(N)=NC3(C)C)c2)c1 | 19.5
12 | CC1(C)N=C(N)N=C(N)N1c1cccc(OCc2ccccc2)c1 | 64.6
13 | CSc1ccc(N2C(N)=NC(N)=NC2(C)C)cc1 | 251
14 | CCCCCCCc1ccc(N2C(N)=NC(N)=NC2(C)C)cc1 | 6.31
15 | CC1(C)N=C(N)N=C(N)N1c1ccc(C(F)(F)F)cc1 | 132
16 | CC1(C)N=C(N)N=C(N)N1c1cccc(SCc2ccc(Cl)cc2)c1 | 2.63
17 | CC1(C)N=C(N)N=C(N)N1c1ccc(O)cc1 | 2510
18 | CCCCOc1ccc(N2C(N)=NC(N)=NC2(C)C)cc1 | 631
19 | CC1(C)N=C(N)N=C(N)N1c1cccc(SCc2ccccc2)c1 | 2.82
20 | CCOc1cccc(N2C(N)=NC(N)=NC2(C)C)c1 | 6310
21 | CCCCCOc1ccc(N2C(N)=NC(N)=NC2(C)C)cc1 | 257
22 | CC1(C)N=C(N)N=C(N)N1c1cccc(COc2cccc(NC(N)=O)c2)c1 | 4.57
23 | CCCCCCCCc1ccc(N2C(N)=NC(N)=NC2(C)C)cc1 | 6.31
24 | CCCCCCCCCCCOc1cccc(N2C(N)=NC(N)=NC2(C)C)c1 | 18.6
25 | CCCCCCOc1cccc(N2C(N)=NC(N)=NC2(C)C)c1 | 21.4
26 | CCCCCc1ccc(OCc2cccc(N3C(N)=NC(N)=NC3(C)C)c2)cc1 | 17
27 | Cc1ccc(N2C(N)=NC(N)=NC2(C)C)cc1 | 166
28 | CC(C)(C)c1cccc(N2C(N)=NC(N)=NC2(C)C)c1 | 214

Row | SMILES | Ki [nM]
29 | CC1(C)N=C(N)N=C(N)N1c1cccc(COc2cccc(C#N)c2)c1 | 8.32
30 | CCc1cccc(OCc2cccc(N3C(N)=NC(N)=NC3(C)C)c2)c1 | 4.17
31 | CC1(C)N=C(N)N=C(N)N1c1cccc(CNc2cc(C(N)=O)cc(C(N)=O)c2)c1 | 15.1
32 | COc1cccc(OCc2cccc(N3C(N)=NC(N)=NC3(C)C)c2)c1 | 7.76
33 | CCOC(=O)c1cccc(N2C(N)=NC(N)=NC2(C)C)c1 | 2340
34 | CCCCCCc1ccc(N2C(N)=NC(N)=NC2(C)C)cc1 | 7.94
35 | CCCCCCCCCOc1cccc(N2C(N)=NC(N)=NC2(C)C)c1 | 6.76
36 | CC(=O)Nc1cccc(OCc2cccc(N3C(N)=NC(N)=NC3(C)C)c2)c1 | 3.24
37 | CC1(C)N=C(N)N=C(N)N1c1cccc(COc2cccc(Cl)c2)c1 | 12
38 | CC1(C)N=C(N)N=C(N)N1c1cccc([N+](=O)[O-])c1 | 132
39 | CC1(C)N=C(N)N=C(N)N1c1cccc(COc2cccc(CO)c2)c1 | 25.1
40 | CC1(C)N=C(N)N=C(N)N1c1cccc(OCCCCOc2ccccc2)c1 | 38
41 | CCOc1cc(Cc2cnc(N)nc2N)cc(OCC)c1-n1cccc1 [EPIROPRIM] | 17.4
42 | CC(C)c1cccc(OCc2cccc(N3C(N)=NC(N)=NC3(C)C)c2)c1 | 4.79
43 | CC1(C)N=C(N)N=C(N)N1c1cccc(COc2cccc(-c3ccccc3)c2)c1 | 4.47
44 | CCCCCCCCCCc1ccc(N2C(N)=NC(N)=NC2(C)C)cc1 | 15.8
45 | CCCCCCCCCCCCCCOc1cccc(N2C(N)=NC(N)=NC2(C)C)c1 | 331
46 | CC1(C)N=C(N)N=C(N)N1c1cccc(OCCOc2cccc(C(F)(F)F)c2)c1 | 22.4
47 | CC1(C)N=C(N)N=C(N)N1c1cccc(COc2cccc3ccccc23)c1 | 5.37
48 | CCCCCCOc1ccc(N2C(N)=NC(N)=NC2(C)C)cc1 | 100
